Common to all, as to assay type: cell-based
The subject of assay [1] is Pseudomonas aeruginosa (strain PA01). The assay can be described thus: microbe, parasite or virus in culture. The settings on record: strain. The gist of the method:
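Broth microdilution MIC against P. aeruginosa PAO1 in LB: peptides serially diluted by ⅔, bacteria added at OD600 0.001 and incubated 18–24 h at 37 °C. MTT added; MIC is the lowest concentration preventing visible growth.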

In assay [2] the test system is Escherichia coli (strain DH5α). The following applies: DH5α. How it is done:
(§1) Antimicrobial activity was assayed against Bacillus subtilis (strain BR151), Escherichia coli (strain DH5α) and Pseudomonas aeruginosa (strain PA01). Microdilution broth method was used to determine the minimal inhibitory concentration (MIC). A colony of bacteria was grown in LB-medium overnight at 37° C. The concentration was quantified by measuring absorbance at 600 nm and diluted to OD600=0.1 (1×10^8 CFU/mL). The samples were prepared as stock solutions of 1 mg mL^−1 in H2O and diluted serially by ⅔ in nutrient LB in a 96-well microtiterplate (Cornstar, polypropylene, untreated). The sample solutions (50 μL) were mixed with the diluted bacterial suspension with an OD600 nm of 0.001 (50 μL). […] The plates were incubated at 37° C. until satisfactory growth (18-24 h). For each test, two columns of the plate were kept for sterility control (SC, broth only) and growth control (GC, broth with bacterial inoculums, no antibiotics). 10 μL of a solution of MTT (0.1% in H2O) was added to each well. The minimal inhibitory concentration (MIC) was defined as the lowest concentration of the antimicrobial substance (peptide dendrimer) that inhibited visible growth of the tested bacteria (yellow) with the unaided eye. For microbiological study the linear peptide LysTyrLysLysAlaLeuLysLysLeuAlaLysLeuLeu (SEQ ID No. 1) was used as reference.
(§2) The AMPD library was tested for their antimicrobial activity against B. subtilis BR151, a Gram-positive bacterium and E. coli DH5α, another Gram-negative bacterium, to cover a broader spectrum of different bacteria. […] Therefore no explicit SAR can be established, but clearly the hydrophobic amino acids Ala and Tyr seem to have a significant influence in reducing activity.

In assay [3] the test system is Bacillus subtilis (strain BR151). The following applies: strain BR151. How it is done: as §1, §2

Converted amounts (≈) assume the structure as drawn. Positions of bridges follow the written chain, without caps; N, C: chain ends. Non-standard residues stand in square brackets, D forms with d. Residues, ends and D or L forms follow the SMILES beside them. Groups on a side chain read outwards from the residue. Chains are numbered I, II in the order given. dDap = NC[C@@H](N)C(=O)O; Dap = NC[C@H](N)C(=O)O

The record followed here is patent US10336792B2, “Antimicrobial peptide dendrimers” (priority 2014, dated 2019).

With `CC(C)C[C@H](NC(=O)[C@H](CCCNC(=N)N)NC(=O)[C@H](CNC(=O)[C@H](CC(C)C)NC(=O)[C@H](CCCNC(=N)N)NC(=O)[C@H](CNC(=O)[C@H](CC(C)C)NC(=O)[C@H](CCCNC(=N)N)NC(=O)[C@H](CNC(=O)[C@H](CC(C)C)NC(=O)[C@@H](N)CCCNC(=N)N)NC(=O)[C@H](CC(C)C)NC(=O)[C@@H](N)CCCNC(=N)N)NC(=O)[C@H](CC(C)C)NC(=O)[C@H](CCCNC(=N)N)NC(=O)[C@H](CNC(=O)[C@H](CC(C)C)NC(=O)[C@@H](N)CCCNC(=N)N)NC(=O)[C@H](CC(C)C)NC(=O)[C@@H](N)CCCNC(=N)N)NC(=O)[C@H](CC(C)C)NC(=O)[C@H](CCCNC(=N)N)NC(=O)[C@H](CNC(=O)[C@H](CC(C)C)NC(=O)[C@H](CCCNC(=N)N)NC(=O)[C@H](CNC(=O)[C@H](CC(C)C)NC(=O)[C@@H](N)CCCNC(=N)N)NC(=O)[C@H](CC(C)C)NC(=O)[C@@H](N)CCCNC(=N)N)NC(=O)[C@H](CC(C)C)NC(=O)[C@H](CCCNC(=N)N)NC(=O)[C@H](CNC(=O)[C@H](CC(C)C)NC(=O)[C@@H](N)CCCNC(=N)N)NC(=O)[C@H](CC(C)C)NC(=O)[C@@H](N)CCCNC(=N)N)C(N)=O` [MSt-137, (RL)8(BRL)4(BRL)2(BRL)] (I: H-RL[Dap]([Leu-Arg])RL[Dap]RL[Dap]RL-NH2 / II: H-RL[Dap]([Leu-Arg])RL[Dap]RL / III: H-RL[Dap]([Leu-Arg])RL / IV: H-RL[Dap]([Leu-Arg])RL; amide I:6-IV:C, I:9-II:C, II:6-III:C), the “MIC P. aeruginosa PAO1” value in assay [1] was determined as 7 µg/mL (≈ 1.5 µM). Besides, the “MIC E. coli DH5α” value in assay [2] came to 3 µg/mL (≈ 0.644 µM). For the same compound, the “MIC B. subtilis BR151” value in assay [3] was found to be 4 µg/mL (≈ 0.858 µM).

In the case of `CC(C)C[C@H](NC(=O)[C@H](CCCNC(=N)N)NC(=O)[C@H](CNC(=O)[C@H](CC(C)C)NC(=O)[C@H](CCCNC(=N)N)NC(=O)[C@H](CNC(=O)[C@H](CC(C)C)NC(=O)[C@@H](N)CCCNC(=N)N)NC(=O)[C@H](CC(C)C)NC(=O)[C@@H](N)CCCNC(=N)N)NC(=O)[C@H](CC(C)C)NC(=O)[C@H](CCCNC(=N)N)NC(=O)[C@H](CNC(=O)[C@H](CC(C)C)NC(=O)[C@@H](N)CCCNC(=N)N)NC(=O)[C@H](CC(C)C)NC(=O)[C@@H](N)CCCNC(=N)N)C(N)=O` [MSt-139, (RL)4(BRL)2(BRL)] (I: H-RL[Dap]([Leu-Arg])RL[Dap]RL-NH2 / II: H-RL[Dap]([Leu-Arg])RL; amide I:6-II:C), the “MIC P. aeruginosa PAO1” value in assay [1] was found to be 2 µg/mL (≈ 0.926 µM). In assay [2], the “MIC E. coli DH5α” value was determined as 17 µg/mL (≈ 7.87 µM). Moreover, the “MIC B. subtilis BR151” value in assay [3] is 16 µg/mL (≈ 7.4 µM).

Turning to `CC(C)C[C@@H](NC(=O)[C@@H](CCCCN)NC(=O)[C@@H](CNC(=O)[C@@H](CC(C)C)NC(=O)[C@@H](CCCCN)NC(=O)[C@@H](CNC(=O)[C@@H](CC(C)C)NC(=O)[C@@H](CCCCN)NC(=O)[C@@H](CNC(=O)[C@@H](CC(C)C)NC(=O)[C@H](N)CCCCN)NC(=O)[C@@H](CC(C)C)NC(=O)[C@H](N)CCCCN)NC(=O)[C@@H](CC(C)C)NC(=O)[C@@H](CCCCN)NC(=O)[C@@H](CNC(=O)[C@@H](CC(C)C)NC(=O)[C@H](N)CCCCN)NC(=O)[C@@H](CC(C)C)NC(=O)[C@H](N)CCCCN)NC(=O)[C@@H](CC(C)C)NC(=O)[C@@H](CCCCN)NC(=O)[C@@H](CNC(=O)[C@@H](CC(C)C)NC(=O)[C@@H](CCCCN)NC(=O)[C@@H](CNC(=O)[C@@H](CC(C)C)NC(=O)[C@H](N)CCCCN)NC(=O)[C@@H](CC(C)C)NC(=O)[C@H](N)CCCCN)NC(=O)[C@@H](CC(C)C)NC(=O)[C@@H](CCCCN)NC(=O)[C@@H](CNC(=O)[C@@H](CC(C)C)NC(=O)[C@H](N)CCCCN)NC(=O)[C@@H](CC(C)C)NC(=O)[C@H](N)CCCCN)C(N)=O` [MSt-154, (kl)8(bkl)4(bkl)2(bkl)] (I: H-[dK][dL][dDap]([dL-dK])[dK][dL][dDap][dK][dL][dDap][dK][dL]-NH2 / II: H-[dK][dL][dDap]([dL-dK])[dK][dL][dDap][dK][dL] / III: H-[dK][dL][dDap]([dL-dK])[dK][dL] / IV: H-[dK][dL][dDap]([dL-dK])[dK][dL]; amide I:6-IV:C, I:9-II:C, II:6-III:C), in assay [1], the “MIC P. aeruginosa PAO1” value worked out at 6 µg/mL (≈ 1.42 µM). Moreover, in assay [2], the “MIC E. coli DH5α” value is 2 µg/mL (≈ 0.472 µM). The “MIC B. subtilis BR151” value in assay [3] turned out to be 2 µg/mL (≈ 0.472 µM).

For `CC(C)C[C@@H](NC(=O)[C@@H](CCCNC(=N)N)NC(=O)[C@@H](CCCCNC(=O)[C@@H](CC(C)C)NC(=O)[C@@H](CCCNC(=N)N)NC(=O)[C@@H](CCCCNC(=O)[C@@H](CC(C)C)NC(=O)[C@@H](CCCNC(=N)N)NC(=O)[C@@H](CCCCNC(=O)[C@@H](CC(C)C)NC(=O)[C@H](N)CCCNC(=N)N)NC(=O)[C@@H](CC(C)C)NC(=O)[C@H](N)CCCNC(=N)N)NC(=O)[C@@H](CC(C)C)NC(=O)[C@@H](CCCNC(=N)N)NC(=O)[C@@H](CCCCNC(=O)[C@@H](CC(C)C)NC(=O)[C@H](N)CCCNC(=N)N)NC(=O)[C@@H](CC(C)C)NC(=O)[C@H](N)CCCNC(=N)N)NC(=O)[C@@H](CC(C)C)NC(=O)[C@@H](CCCNC(=N)N)NC(=O)[C@@H](CCCCNC(=O)[C@@H](CC(C)C)NC(=O)[C@@H](CCCNC(=N)N)NC(=O)[C@@H](CCCCNC(=O)[C@@H](CC(C)C)NC(=O)[C@H](N)CCCNC(=N)N)NC(=O)[C@@H](CC(C)C)NC(=O)[C@H](N)CCCNC(=N)N)NC(=O)[C@@H](CC(C)C)NC(=O)[C@@H](CCCNC(=N)N)NC(=O)[C@@H](CCCCNC(=O)[C@@H](CC(C)C)NC(=O)[C@H](N)CCCNC(=N)N)NC(=O)[C@@H](CC(C)C)NC(=O)[C@H](N)CCCNC(=N)N)C(N)=O` [MSt-155, (rl)8(krl)4(krl)2(krl)] (I: H-[dR][dL][dK]([dL-dR])[dR][dL][dK][dR][dL][dK][dR][dL]-NH2 / II: H-[dR][dL][dK]([dL-dR])[dR][dL][dK][dR][dL] / III: H-[dR][dL][dK]([dL-dR])[dR][dL] / IV: H-[dR][dL][dK]([dL-dR])[dR][dL]; amide I:6-IV:C, I:9-II:C, II:6-III:C), the “MIC P. aeruginosa PAO1” value in assay [1] was 11 µg/mL (≈ 2.22 µM). The “MIC E. coli DH5α” value in assay [2] was 4 µg/mL (≈ 0.807 µM). For the same compound, in assay [3], the “MIC B. subtilis BR151” value amounted to 6 µg/mL (≈ 1.21 µM).

With `CC(C)C[C@@H](NC(=O)[C@@H](CCCNC(=N)N)NC(=O)[C@@H](CNC(=O)[C@@H](CC(C)C)NC(=O)[C@@H](CCCNC(=N)N)NC(=O)[C@@H](CNC(=O)[C@@H](CC(C)C)NC(=O)[C@@H](CCCNC(=N)N)NC(=O)[C@@H](CNC(=O)[C@@H](CC(C)C)NC(=O)[C@H](N)CCCNC(=N)N)NC(=O)[C@@H](CC(C)C)NC(=O)[C@H](N)CCCNC(=N)N)NC(=O)[C@@H](CC(C)C)NC(=O)[C@@H](CCCNC(=N)N)NC(=O)[C@@H](CNC(=O)[C@@H](CC(C)C)NC(=O)[C@H](N)CCCNC(=N)N)NC(=O)[C@@H](CC(C)C)NC(=O)[C@H](N)CCCNC(=N)N)NC(=O)[C@@H](CC(C)C)NC(=O)[C@@H](CCCNC(=N)N)NC(=O)[C@@H](CNC(=O)[C@@H](CC(C)C)NC(=O)[C@@H](CCCNC(=N)N)NC(=O)[C@@H](CNC(=O)[C@@H](CC(C)C)NC(=O)[C@H](N)CCCNC(=N)N)NC(=O)[C@@H](CC(C)C)NC(=O)[C@H](N)CCCNC(=N)N)NC(=O)[C@@H](CC(C)C)NC(=O)[C@@H](CCCNC(=N)N)NC(=O)[C@@H](CNC(=O)[C@@H](CC(C)C)NC(=O)[C@H](N)CCCNC(=N)N)NC(=O)[C@@H](CC(C)C)NC(=O)[C@H](N)CCCNC(=N)N)C(N)=O` [MSt-156, (rl)8(brl)4(brl)2(brl)] (I: H-[dR][dL][dDap]([dL-dR])[dR][dL][dDap][dR][dL][dDap][dR][dL]-NH2 / II: H-[dR][dL][dDap]([dL-dR])[dR][dL][dDap][dR][dL] / III: H-[dR][dL][dDap]([dL-dR])[dR][dL] / IV: H-[dR][dL][dDap]([dL-dR])[dR][dL]; amide I:6-IV:C, I:9-II:C, II:6-III:C), the “MIC P. aeruginosa PAO1” value in assay [1] worked out at 10 µg/mL (≈ 2.15 µM). In addition, the “MIC E. coli DH5α” value in assay [2] came out at 4 µg/mL (≈ 0.858 µM). The “MIC B. subtilis BR151” value in assay [3] was 7 µg/mL (≈ 1.5 µM).
